Results taken from patent EP4104902B1, “COMPOUNDS AND M[…] SAME” (priority 2020, dated 2021).
Where two headings read alike, the source gives them in different places.

Test system: recombinant rabies virus 1088 strain expressing Gaussia Luciferase (GLuc) (1088/GLuc)
Type: cell-based

Structure (SMILES)	IC50 (read-out: Anti-rabies activity) [µM]	IC50 (read-out: IC50) [µM]
O=C(NCc1ccc(F)cc1)[C@]12NC[C@@H]3C[C@H]1CN(CCO)[C@H]2[C@@H]3Cc1ccc(O)cc1 (relative stereo) [IB-549]	10 to 30	
CC(C)CNC(=O)[C@]12NC[C@@H]3C[C@H]1CN(Cc1cccc4ccccc14)[C@H]2[C@@H]3Cc1ccc(O)cc1 (relative stereo) [IB-763]	10 to 30	
CC(C)CNC(=O)[C@]12NC[C@@H]3C[C@H]1CN(CCC(=O)O)[C@H]2[C@@H]3CCc1ccccc1 (relative stereo) [IB-430]	< 5	
O=C(NCc1cccc2ccccc12)[C@@]12C[C@@H]3CN(Cc4ccc(O)cc4)[C@@H]([C@@H]3CN1)[C@H]2Cc1cccc2ccccc12 (relative stereo) [IF-779]	10 to 30	
CC(C)CC1C2CNC3(C(=O)NCc4ccc(Cl)cc4)C(C2)CN(CC(C)C)C13 (stereo not shown) [IB-871]	10 to 30	
O=C(NCc1ccc(F)cc1)C12NCC3CC1CN(CCO)C2C3Cc1ccccc1 (stereo not shown) [IB-479]	10 to 30	
O=C(NCCO)[C@]12NC[C@@H]3C[C@H]1CN(Cc1ccc(F)cc1)[C@H]2[C@@H]3CCc1ccccc1 (relative stereo) [IB-669]	10 to 30	
CC(C)C[C@@H]1[C@@H]2CN[C@@]3(C(=O)NCc4ccc(O)cc4)[C@@H](C2)CN(Cc2ccc(F)cc2)[C@@H]13 (relative stereo) [IB-458]	10 to 30	
CCCCCCNC(=O)[C@@]12C[C@@H]3CN(Cc4ccc(F)cc4)[C@@H]([C@@H]3CN1)[C@H]2CCCNC(=N)N (relative stereo) [IF-298]	10 to 30	
O=C(NCc1cccc2ccccc12)[C@@]12C[C@@H]3CN(CCO)[C@@H]([C@@H]3CN1)[C@H]2Cc1ccccc1 (relative stereo) [IF-758]	< 5	
CC(C)CCNC(=O)[C@]12NC[C@@H]3C[C@H]1CN(CC(C)C)[C@H]2[C@@H]3CCc1ccccc1 (relative stereo) [IB-688]	< 5	
CC(C)CC[C@@H]1[C@@H]2[C@@H]3CN[C@@]1(C(=O)NCCc1ccccc1)C[C@@H]3CN2Cc1ccccc1 (relative stereo) [IF-723]	10 to 30	
CC(C)CC[C@@H]1[C@@H]2[C@@H]3CN[C@@]1(C(=O)NCc1ccccc1)C[C@@H]3CN2CC(C)C (relative stereo) [IF-675]	< 5	
CN1CC2CC3C=NC2(C(=O)NCCc2cccc4cccnc24)C1C3Cc1ccccc1 (stereo not shown) [IIB-329]	< 5	
CC(C)C[C@@H]1[C@@H]2CN[C@@]3(C(=O)NCc4cccc5ccccc45)[C@@H](C2)CN(CCCNC(=N)N)[C@@H]13 (relative stereo) [IB-164, (3S*, 3aS*, 6R*, 7R*, 7aS*)-1-(3-guanidinopropyl)-7-isobutyl-N-(naphthalen-1-ylmethyl)octahydro-3aH-3,6-methanopyrrolo[3,2-b]pyridine-3a-carboxamide]	< 5	
CC(C)CC[C@@H]1[C@@H]2[C@@H]3CN[C@@]1(C(=O)NCc1ccc(O)cc1)C[C@@H]3CN2CC1CCCCC1 (relative stereo) [IF-474]	< 5	
COC(=O)N1CC2CC3CN(Cc4ccc(C)cc4)C(C2CC(C)C)C31C(=O)NCc1ccccc1 (stereo not shown) [IB-885]	5 to 10	
N=C(N)NCCCNC(=O)[C@]12NC[C@@H]3C[C@H]1CN(CCc1ccccc1)[C@H]2[C@@H]3Cc1cccc2ccccc12 (relative stereo) [IB-347]	10 to 30	
Cc1ccc(CN2CC3CC4CN(C(=O)NCc5ccccc5)C3(C(=O)NCc3ccccc3)C2C4CC(C)C)cc1 (stereo not shown) [IB-889]	5 to 10	
N=C(N)NCCC[C@@H]1[C@@H]2CN[C@@]3(C(=O)NCc4ccccc4)[C@@H](C2)CN(Cc2ccc(F)cc2)[C@@H]13 (relative stereo) [IB-260]	10 to 30	

Structure (SMILES)	IC50 (read-out: Anti-rabies activity) [µM]	IC50 (read-out: IC50) [µM]
CC(C)C[C@@H]1[C@@H]2[C@@H]3CN[C@@]1(C(=O)NCCc1ccccc1)C[C@@H]3CN2CC1CCCCC1 (relative stereo) [IF-711]	10 to 30	
CC(C)CCN1C[C@H]2C[C@]3(C(=O)NCc4cccc5ccccc45)NC[C@H]2[C@H]1[C@H]3Cc1ccc(O)cc1 (relative stereo) [IF-706]	< 5	
O=C(NCCO)[C@@]12C[C@@H]3CN(Cc4cccc5ccccc45)[C@@H]([C@@H]3CN1)[C@H]2Cc1ccccc1 (relative stereo) [IF-603]	10 to 30	
CC(C)NC(=O)[C@@]12C[C@@H]3CN(Cc4ccc(F)cc4)[C@@H]([C@@H]3CN1)[C@H]2CCCNC(=N)N (relative stereo) [IF-274]	10 to 30	
O=C(NCCc1ccccc1)[C@@]12C[C@@H]3CN(Cc4ccccc4)[C@@H]([C@@H]3CN1)[C@H]2Cc1ccc(O)cc1 (relative stereo) [IF-722]	< 5	
CC(C)CCN1C[C@H]2C[C@]3(C(=O)NCc4ccc(F)cc4)N=C[C@H]2[C@H]1[C@H]3Cc1ccccc1 (relative stereo) [IIF-327]	< 5	
O=C(NCCO)[C@]12NC[C@@H]3C[C@H]1CN(Cc1cccc4ccccc14)[C@H]2[C@@H]3Cc1ccc(O)cc1 (relative stereo) [IB-459]	10 to 30	
NC(=O)C[C@@H]1[C@@H]2[C@@H]3CN[C@@]1(C(=O)NCCc1ccccc1)C[C@@H]3CN2CC1CCCCC1 (relative stereo) [IF-251]	10 to 30	
O=C(NCCO)[C@@]12C[C@@H]3CN(Cc4ccccc4)[C@@H]([C@@H]3CN1)[C@H]2Cc1cccc2ccccc12 (relative stereo) [IF-624]	10 to 30	
CC(C)CCN1CC2CC3CNC2(C(=O)NCc2ccc(F)cc2)C1C3CCC(=O)O (stereo not shown) [IB-386]	10 to 30	
O=C(NCc1ccc(O)cc1)[C@@]12C[C@@H]3CN(CC4CCCCC4)[C@@H]([C@@H]3CN1)[C@H]2Cc1ccccc1 (relative stereo) [IF-477]	< 5	
CC(C)CC1C2CNC3(C(=O)NCc4ccccc4)C(C2)CN(Cc2ccc(C(C)(C)C)cc2)C13 (stereo not shown) [IB-874]	5 to 10	
O=C(NCCO)[C@]12NC[C@@H]3C[C@H]1CN(CCc1ccccc1)[C@H]2[C@@H]3Cc1ccccc1 (relative stereo) [IB-640]	< 5	
CC(C)CC1C2CNC3(C(=O)NCc4ccccc4)C(C2)CN(Cc2ccc(Cl)cc2)C13 (stereo not shown) [IB-864]	5 to 10	
CC(C)CN1C[C@H]2C[C@]3(C(=O)NCc4ccc(F)cc4)NC[C@H]2[C@H]1[C@H]3CCc1ccccc1 (relative stereo) [IF-525]	10 to 30	
CCCCCCNC(=O)[C@]12NC[C@@H]3C[C@H]1CN(CCC(C)C)[C@H]2[C@@H]3CC(C)C (relative stereo) [IB-551]	< 5	
NC(=O)CN1C[C@@H]2C[C@H]3CN[C@]2(C(=O)NCc2ccc(F)cc2)[C@@H]1[C@@H]3CCc1ccccc1 (relative stereo) [IB-95]	< 5	
CC(C)CCC1C2CNC3(C(=O)NCc4ccc(F)cc4)C(C2)CN(CCC(=O)O)C13 (stereo not shown) [IB-399]	10 to 30	
CCCCCCNC(=O)C12NCC3CC1CN(CCO)C2C3Cc1ccc(O)cc1 (stereo not shown) [IB-478]	10 to 30	
CC(C)CC[C@@H]1[C@@H]2CN[C@@]3(C(=O)NCc4ccc(O)cc4)[C@@H](C2)CN(CC(C)C)[C@@H]13 (relative stereo) [IB-465]	10 to 30	

Structure (SMILES)	IC50 (read-out: Anti-rabies activity) [µM]	IC50 (read-out: IC50) [µM]
Cc1ccc(CNC(=O)[C@@]23C[C@@H]4CN(CCC(C)C)[C@@H]([C@@H]4C=N2)[C@H]3Cc2ccccc2)cc1 (relative stereo) [IIF-328]	< 5	
CC(C)CC[C@@H]1[C@@H]2CN[C@@]3(C(=O)NCCc4ccccc4)[C@@H](C2)CN(CCO)[C@@H]13 (relative stereo) [IB-531]	10 to 30	
O=C(NCCO)[C@]12NC[C@@H]3C[C@H]1CN(CC1CCCCC1)[C@H]2[C@@H]3CCc1ccccc1 (relative stereo) [IB-663]	< 5	
O=C(NCCc1ccccc1)[C@@]12C[C@@H]3CN(Cc4cccc5ccccc45)[C@@H]([C@@H]3CN1)[C@H]2Cc1ccc(O)cc1 (relative stereo) [IF-708]	< 5	
O=C(NCCO)[C@@]12C[C@@H]3CN(CCc4ccccc4)[C@@H]([C@@H]3CN1)[C@H]2Cc1cccc2ccccc12 (relative stereo) [IF-612]	10 to 30	
O=C(O)CCNC(=O)[C@]12NC[C@@H]3C[C@H]1CN(CC1CCCCC1)[C@H]2[C@@H]3Cc1cccc2ccccc12 (relative stereo) [IB-614]	10 to 30	
CCCCCCNC(=O)C12NCC3CC1CN(CCO)C2C3Cc1ccccc1 (stereo not shown) [IB-476]	< 5	
CC(C)CC[C@@H]1[C@@H]2CN[C@@]3(C(=O)NCCO)[C@@H](C2)CN(Cc2ccc(F)cc2)[C@@H]13 (relative stereo) [IB-668]	< 5	
CC(C)CNC(=O)[C@@]12C[C@@H]3CN(Cc4cccc5ccccc45)[C@@H]([C@@H]3CN1)[C@H]2CC(C)C (relative stereo) [IF-739]	< 5	
O=C(NCCO)[C@]12NC[C@@H]3C[C@H]1CN(Cc1ccccc1)[C@H]2[C@@H]3CCc1ccccc1 (relative stereo) [IB-681]	10 to 30	
CC(C)CNC(=O)[C@]12NC[C@@H]3C[C@H]1CN(Cc1cccc4ccccc14)[C@H]2[C@@H]3CC(C)C (relative stereo) [IB-762]	< 5	
CCCCCCNC(=O)[C@]12NC[C@@H]3C[C@H]1CN(CCCNC(=N)N)[C@H]2[C@@H]3CCc1ccccc1 (relative stereo) [IB-174]	10 to 30	
CC(C)CNC(=O)[C@]12N=C[C@@H]3C[C@H]1CN(Cc1ccccc1)[C@H]2[C@@H]3CC(C)C (relative stereo) [IIB-4, (3S*,3aS*,6R*,7R*,7aS*)-1-benzyl-N,7-diisobutyl-1,2,3,6,7,7a-hexahydro-3aH-3,6-methanopyrrolo[3,2-b]pyridine-3a-carboxamide]	5 to 10	8.9
CC(C)C[C@@H]1[C@@H]2CN[C@@]3(C(=O)NCc4ccc(O)cc4)[C@@H](C2)CN(CC2CCCCC2)[C@@H]13 (relative stereo) [IB-581]	10 to 30	
CC(C)CNC(=O)C12NCC3CC1CN(CC1CCCCC1)C2C3CCC(=O)O (stereo not shown) [IB-510]	10 to 30	
CC(C)C[C@@H]1[C@@H]2[C@@H]3CN[C@@]1(C(=O)NCc1ccccc1)C[C@@H]3CN2Cc1ccc(F)cc1 (relative stereo) [IF-650]	< 5	
CC(C)CCNC(=O)[C@]12NC[C@@H]3C[C@H]1CN(CC(C)C)[C@H]2[C@@H]3Cc1ccccc1 (relative stereo) [IB-780]	< 5	
CC(C)CNC(=O)[C@]12NC[C@@H]3C[C@H]1CN(Cc1ccccc1)[C@H]2[C@@H]3CC(C)C (relative stereo) [IB-4]	10 to 30	19.2
O=C(NCc1cccc2ccccc12)[C@]12NC[C@@H]3C[C@H]1CN(CCO)[C@H]2[C@@H]3Cc1ccc(O)cc1 (relative stereo) [IB-527]	10 to 30	
